Results as given in US11697639B2, “Quaternary ammonium salt compound, preparation method therefor and use thereof” (WEST CHINA HOSPITAL, SICHUAN UNIVERSITY, priority 2018, dated 2023).
Structures can show the parent of a compound that is named as a salt.

Experiments:
Format in all cases: in vivo
[1] = system: rat's sciatic nerve; experiment: Rat sciatic nerve block, motor function by Postural Extensor Thrust (PET); conditions: 0.5 mL injected near sciatic nerve, test drugs 20 mmol/mL in distilled water, lidocaine 2%, levobupivacaine 0.75%
Description: (§1) For the dosage, the lidocaine group is 2% aqueous solution, the levobupivacaine group is 0.75% aqueous solution, and test drug groups are all distilled water solution at the concentration of 20 mmol/mL.
(§2) The injection volume for each rat or the control was 0.5 mL, which was guided by a nerve locator and injected near the rat's sciatic nerve. Using von Frey stimulator, the rats were stimulated the soles of the feet in the injected side, to observe the effect of local anesthesia. Meanwhile, Postural Extensor Thrust (PET) was used to evaluate the motor function of the rat: the rat was lifted vertically and the hindlimb in the injected side pedaled on the platform of the electronic balance. […] When the limb was completely paralyzed, the reading was the limb's own weight, about 20 g. If the measured value was more than half of the difference between the baseline and the limb weight, the motor function was regarded as recovery, and if the value was less than or equal to this difference, the motor function was regarded as loss.

[2] = system: rat's sciatic nerve; experiment: Rat sciatic nerve block, sensory block tested with von Frey stimulator; conditions: 0.5 mL injected near sciatic nerve, test drugs 20 mmol/mL in distilled water, lidocaine 2%, levobupivacaine 0.75%; for Local anesthesia onset time (Median): 8 rats per group; for Time of sensory block (Median): von Frey
Description: as §1, §2

[3] = system: back skin of rat; experiment: Local anesthetic effect by subcutaneous infiltration in rat back skin (Von Frey 100 g); conditions: 0.5 mL in saline, compound 6 mmol/L, bupivacaine 23 mmol/L, 10 rats per compound
Description: After the back of rat weighing 250-300 g was shaved and disinfected, a circle with a diameter of about 1.5 cm was drawn on the side of the exposed back, and the circle is divided into 6 equal parts. […] Among the Von Frey fiber yarns, the one with a strength of 100 g was bound to the needle for local skin stimulation. One minute After the drug was injected, the above method was used to stimulate in 6 divisions. […] If back skin contraction was observed, the local anesthetic effect was considered as loss. […] Each compound was tested with 10 rats.

With CCC[N+](CC)(CCCCCCCCN1CCCCC1C(=O)Nc1c(C)cc(OC)cc1C)CC(=O)Nc1c(C)ccc([N+](=O)[O-])c1C.[Br-] (stereo not shown) [example 29] the “Time of motor block (Median)” value [1] was 28 h, the “Local anesthesia onset time (Median)” value [2] was 1 min and the “Time of sensory block (Median)” value [2] was 33 h.
With CC[N+](C)(CCCN1CCCCC1C(=O)Nc1c(C)cccc1C)CC(=O)Nc1c(C)cccc1C (stereo not shown) [example 1] the “Time of motor block (Median)” value [1] was 18 h, the “Local anesthesia onset time (Median)” value [2] was 3 min and the “Time of sensory block (Median)” value [2] was 24 h. The “Lasting time of local anesthesia (Median)” value (“Lasting time” below) [3] was 34 h and the “Local anesthesia onset time (Median)” value [3] was 1 min.
CC[N+](C)(CCCN1CCCC[C@@H]1C(=O)Nc1c(C)cccc1C)CC(=O)Nc1c(C)cccc1C (stereo partly shown) [example 16] was tested, and the “Time of motor block (Median)” value [1] was 19 h, the “Local anesthesia onset time (Median)” value [2] was 1 min and the “Time of sensory block (Median)” value [2] was 25 h.
For CC[N+](C)(CCCN1CCCCC1C(=O)Nc1c(C)cccc1C)CC(=O)Nc1c(C)cccc1C.O=C(O)c1ccccc1.[Br-] (stereo not shown) [example 14], the “Time of motor block (Median)” value [1] was 18 h, the “Local anesthesia onset time (Median)” value [2] was 3 min and the “Time of sensory block (Median)” value [2] was 32 h.
For CCC[N+](CC)(CCCCCN1CCCCC1C(=O)Nc1c(C)cccc1C)CC(=O)Nc1c(C)cc([N+](=O)[O-])cc1C (stereo not shown) [example 3], the “Time of motor block (Median)” value [1] was 10 h, the “Local anesthesia onset time (Median)” value [2] was 1 min and the “Time of sensory block (Median)” value [2] was 27 h. The “Lasting time” value [3] was 37 h and the “Local anesthesia onset time (Median)” value [3] was 1 min.
For CCCCN(C(=O)[C@@H]1CCCCN1CCCCCCC[N+](CC)(CCC)CC(=O)Nc1c(C)cccc1C)c1c(C)cccc1C.[Br-] (stereo partly shown) [example 23], the “Time of motor block (Median)” value [1] was 28 h, the “Local anesthesia onset time (Median)” value [2] was 2 min and the “Time of sensory block (Median)” value [2] was 35 h.
CCCCN1CCCC[C@H]1C(=O)Nc1c(C)cccc1C [Levobupivacaine Hydrochloride, reference compound] was tested, and the “Time of motor block (Median)” value [1] was 2.5 h, the “Local anesthesia onset time (Median)” value [2] was 1 min and the “Time of sensory block (Median)” value [2] was 2.5 h. For the same compound, the “Lasting time” value [3] was 7 h and the “Local anesthesia onset time (Median)” value [3] was 1 min.
CCC[N+](C)(CCCCCN1CCCCC1C(=O)Nc1c(C)cc(C)cc1C)CC(=O)Nc1c(C)cc(C#N)cc1C (stereo not shown) [example 13] was tested, and the “Time of motor block (Median)” value [1] was 17 h, the “Local anesthesia onset time (Median)” value [2] was 1 min and the “Time of sensory block (Median)” value [2] was 25 h. The “Lasting time” value [3] was 45 h and the “Local anesthesia onset time (Median)” value [3] was 1 min.
CCC[N+](CC)(CCCCCCCN1CCCC[C@@H]1C(=O)Nc1c(C)ccc(C(=O)O)c1C)CC(=O)Nc1c(C)ccc(OC)c1C.[Br-] (stereo partly shown) [example 28] was tested, and the “Time of motor block (Median)” value [1] was 18 h, the “Local anesthesia onset time (Median)” value [2] was 4 min and the “Time of sensory block (Median)” value [2] was 26 h.
In the case of CCC[N+](CC)(CCCCCCCCN1CCCCC1C(=O)Nc1c(C)cccc1C)CC(=O)Nc1c(C)cccc1C.[Br-] (stereo not shown) [example 21], the “Time of motor block (Median)” value [1] is reported as 18 h, the “Local anesthesia onset time (Median)” value [2] is reported as 1 min and the “Time of sensory block (Median)” value [2] is reported as 24 h.
With CCC[N+](CC)(CCCCN1C(C)CCCC1C(=O)Nc1c(C)cccc1C(C)C)CC(=O)Nc1c(C)cccc1C(C)C.[Br-] (stereo not shown) [example 20] the “Time of motor block (Median)” value [1] was 20 h, the “Local anesthesia onset time (Median)” value [2] was 2 min and the “Time of sensory block (Median)” value [2] was 25 h.
For CCCC[N+](CC)(CCOCCN1CCCCC1C(=O)Nc1c(C)cccc1C)CC(=O)Nc1c(C)cccc1O (stereo not shown) [example 5], the “Time of motor block (Median)” value [1] was 11 h, the “Local anesthesia onset time (Median)” value [2] was 6 min and the “Time of sensory block (Median)” value [2] was 28 h. For the same compound, the “Lasting time” value [3] was 68 h and the “Local anesthesia onset time (Median)” value [3] was 1 min.
For CC[N+](C)(CCCN1CCCCC1C(=O)Nc1c(C)cccc1C)CC(=O)Nc1c(C)ccc(Cl)c1C (stereo not shown) [example 6], the “Time of motor block (Median)” value [1] was 19 h, the “Local anesthesia onset time (Median)” value [2] was 3 min and the “Time of sensory block (Median)” value [2] was 30 h. The “Lasting time” value [3] was 47 h and the “Local anesthesia onset time (Median)” value [3] was 1 min.
In the case of CCC[N+](CC)(CCCCCCCN1CCC(OC)C[C@@H]1C(=O)Nc1c(C)cccc1C)CC(=O)Nc1c(C)cccc1C.[Br-] (stereo partly shown) [example 22], the “Time of motor block (Median)” value [1] is reported as 18 h, the “Local anesthesia onset time (Median)” value [2] is reported as 3 min and the “Time of sensory block (Median)” value [2] is reported as 29 h.
With CCCC[N+](CC)(CCCCCCN1CCCCC1C(=O)Nc1c(C)cc([N+](=O)[O-])cc1C)CC(=O)Nc1c(C)cc(C(=O)O)cc1C.[Br-] (stereo not shown) [example 27] the “Time of motor block (Median)” value [1] was 22 h, the “Local anesthesia onset time (Median)” value [2] was 2 min and the “Time of sensory block (Median)” value [2] was 28 h.
CCC[N+](CC)(CCCN1CCCC[C@@H]1C(=O)Nc1c(C)ccc(C(=O)OC)c1C)CC(=O)Nc1c(C)ccc(N)c1C.O=C(O)C(O)C(O)C(=O)O.[Br-] (stereo partly shown) [example 30] was tested, and the “Time of motor block (Median)” value [1] was 19 h, the “Local anesthesia onset time (Median)” value [2] was 4 min and the “Time of sensory block (Median)” value [2] was 28 h.
With CC[N+](C)(CCCN(C)CC(=O)Nc1c(C)cccc1C)CC(=O)Nc1c(C)cccc1C (stereo not shown) [example 9] the “Time of motor block (Median)” value [1] was 10 h, the “Local anesthesia onset time (Median)” value [2] was 5 min and the “Time of sensory block (Median)” value [2] was 24 h. For the same compound, the “Lasting time” value [3] was 28 h and the “Local anesthesia onset time (Median)” value [3] was 2 min.
With CCC[N+](CC)(CCCCCCCCN1CCCC[C@H]1C(=O)Nc1c(C)cccc1C)CC(=O)Nc1c(C)cccc1C.[Br-] (stereo partly shown) [example 19] the “Time of motor block (Median)” value [1] was 22 h, the “Local anesthesia onset time (Median)” value [2] was 1 min and the “Time of sensory block (Median)” value [2] was 29 h.
In the case of Br.CCC[N+](CC)(CCCN1CCCCC1C(=O)Nc1c(C)ccc(S)c1C)CC(=O)Nc1c(C)cc(O)cc1C.[Br-] (stereo not shown) [example 18], the “Time of motor block (Median)” value [1] is reported as 21 h, the “Local anesthesia onset time (Median)” value [2] is reported as 1 min and the “Time of sensory block (Median)” value [2] is reported as 31 h.
CCC[N+](CC)(CCCCCCCCN1CCCCC1C(=O)Nc1c(C)cccc1C)CC(=O)Nc1c(C)cccc1C.Cl.[Br-] (stereo not shown) [example 15] was tested, and the “Time of motor block (Median)” value [1] was 25 h, the “Local anesthesia onset time (Median)” value [2] was 2 min and the “Time of sensory block (Median)” value [2] was 38 h.
With CCC[N+](CC)(CCCCCCCCN1CCCCC1C(=O)Nc1c(C)cccc1C)CC(=O)Nc1c(C)cccc1C.[Br-] (stereo not shown) [example 17] the “Time of motor block (Median)” value [1] was 17 h, the “Local anesthesia onset time (Median)” value [2] was 5 min and the “Time of sensory block (Median)” value [2] was 24 h.
CCC[N+](CC)(CCCCCCCCN1CCCCC1C(=O)Nc1c(C)cccc1C)CC(=O)Nc1c(C)ccc(Br)c1C (stereo not shown) [example 4] was tested, and the “Time of motor block (Median)” value [1] was 10 h, the “Local anesthesia onset time (Median)” value [2] was 1 min and the “Time of sensory block (Median)” value [2] was 33 h. For the same compound, the “Lasting time” value [3] was 44 h and the “Local anesthesia onset time (Median)” value [3] was 2 min.
In the case of CCC[N+](CC)(CCCCCCCCN1CCCCC1C(=O)Nc1c(C)cccc1C)CC(=O)Nc1c(C)cccc1OC (stereo not shown) [example 7], the “Time of motor block (Median)” value [1] is reported as 10 h, the “Local anesthesia onset time (Median)” value [2] is reported as 2 min and the “Time of sensory block (Median)” value [2] is reported as 28 h. The “Lasting time” value [3] was 57 h and the “Local anesthesia onset time (Median)” value [3] was 1 min.
With CCC[N+](CC)(CCCCCCCCN1CCCCC1C(=O)Nc1c(C)cccc1C)CC(=O)Nc1c(C)ccc(Br)c1C (stereo not shown) [example 11] the “Time of motor block (Median)” value [1] was 11 h, the “Local anesthesia onset time (Median)” value [2] was 1 min and the “Time of sensory block (Median)” value [2] was 34 h. The “Lasting time” value [3] was 54 h and the “Local anesthesia onset time (Median)” value [3] was 1 min.
CCC[N+](CC)(CCCCCCCN1CCCCC1C(=O)Nc1c(C)ccc(Cl)c1C)CC(=O)Nc1c(C)ccc(C#N)c1C.[Br-] (stereo not shown) [example 24] was tested, and the “Time of motor block (Median)” value [1] was 16 h, the “Local anesthesia onset time (Median)” value [2] was 1 min and the “Time of sensory block (Median)” value [2] was 24 h.
With CCC[N+](CC)(CCCCCCCCN1CCCC1C(=O)Nc1c(C)ccc(C#N)c1C)CC(=O)Nc1c(C)ccc(C(=O)OC)c1C.[Br-] (stereo not shown) [example 26] the “Time of motor block (Median)” value [1] was 18 h, the “Local anesthesia onset time (Median)” value [2] was 3 min and the “Time of sensory block (Median)” value [2] was 25 h.
For CCC[N+](C)(CCCCCN1CCCCC1C(=O)Nc1c(C)ccc(C#N)c1C)CC(=O)Nc1c(C)cccc1C (stereo not shown) [example 8], the “Time of motor block (Median)” value [1] was 18 h, the “Local anesthesia onset time (Median)” value [2] was 1 min and the “Time of sensory block (Median)” value [2] was 24 h. For the same compound, the “Lasting time” value [3] was 33 h and the “Local anesthesia onset time (Median)” value [3] was 1 min.
For CCC[N+](CC)(CCCCCCCCN1CCCC[C@@H]1C(=O)Nc1c(C)cccc1C)CC(=O)Nc1c(C)cccc1C.O=C(O)CC(O)(CC(=O)O)C(=O)O.[Br-] (stereo partly shown) [example 25], the “Time of motor block (Median)” value [1] was 24 h, the “Local anesthesia onset time (Median)” value [2] was 5 min and the “Time of sensory block (Median)” value [2] was 32 h.
